# Reference: patent publication US20210283099A1, “CDC7 KINASE INHIBITORS AND USES THEREOF” (SLOAN-KETTERING INSTITUTE FOR CANCER RESEARCH, priority 2010, published 2021)
# Tests used:
# Mcm2 phosphorylation = test: Western blotting of Mcm2 after S phase release; assay type: cell-based, human; settings: PhALL3.1 cells, as early as 2 hours post release
# From the text: FIG. 7. Granaticin A Inhibits Mcm2 phosphorylation: Following synchronization in S phase and release, PhALL3.1 cells from the experiments of FIG. 5 and FIG. 6 were collected at the indicated times post release into either control (DMSO) or granaticin A and extracts were subjected to Western blotting to detect total Mcm2 protein.
# HeLa cells = test: S phase checkpoint western blot analysis; assay type: cell-based, human
# Protocol: FIG. 15. […] HeLa cells were incubated in the presence of granaticin A or carrier control (DMSO) for the indicated times and whole cell extracts were subjected to SDS-PAGE and western blot analysis. Asyn=asynchronously growing HeLa cells. HU=HeLa cells exposed to hydroxyurea for the indicated time. HU was used as a control for DNA damaging agent that is known to […] the DNA damage checkpoint response. Again, we observed that Mcm2 mobility is shifted in the cells treated with granaticin A. MCM2 mobility is not affected by HU. Activation of the DNA damage/replication checkpoint correlates with ATM/ATR dependent phosphorylation of Chk1 at Ser345.
# Ph-ALL3.1 cells = test: Release of elutriated S phase cells, FACS and 3H-thymidine incorporation; assay type: cell-based, human
# Protocol: FIG. 5. […] Ph-ALL3.1 cells were subjected to standard centrifugal elutriation conditions and the S phase fraction, as determined by FACS analysis, was released into granaticin A (1 μM) or vehicle control (DMSO) for the indicated times and FACS analysis was performed. […] Apoptosis was confirmed in additional independent experiments. Asynchronous and time zero correspond to an asynchronous cell sample and the elutriated S phase fraction prior to release, respectively.
# FIG. 6. Thymidine incorporation in S-phase: ^3H-Thymidine incorporation during the release experiment outlined in the slide above. Cell samples post-release into granaticin A or vehicle control (DMSO) were pulsed for 2 hours with ^3H-thymidine, and samples were collected, washed, and acid precipitable counts were measured by scintillation counting. X-axis is time post-release into compound or control (in hours) and y-axis is counts per minute (CPM).
# [1] = tested on: primary patient leukemia samples; test: Inhibition of cellular proliferation, all primary patient leukemia samples; assay type: cell-based, human
# Protocol: FIGS. 16A-16B. Granaticin A and Granaticin B inhibit multiple tumor types: The indicated cell lines and primary patient samples were tested against the compounds listed in standard cytotoxicity assays (12 point dose response using Alamar blue reduction as an indicator of cell viability). Assays were done in triplicate and IC50 determinations were run in 12-point serial dilutions from […] to 5 nM. […] These include ras and EGFR gatekeeper mutation containing cell lines in addition to p53 mutant cell lines and other known chemotherapy resistant cell lines. Specifically, this included multi-drug resistance phenotype (MDR-overexpressing) cell lines from multiple hematologic and solid tumor cell lines. Table 1 highlights a series of primary patient leukemia samples-both acute and chronic and treatment naïve and refractory tested against granaticins A and B and Derivatives 1 and 2 (see Examples).
# Table 1 highlights a series of primary patient leukemia samples-both acute and chronic and treatment naïve and refractory and the effect of granaticin A, granaticin B, derivative 1, and derivative 2 to inhibit cellular proliferation. […]
# JOKE-2 cells = test: Trypan blue viability and caspase-3 assay; assay type: cell-based, human; settings: 1 microM
# Protocol: FIGS. 24A-24B. […] The JOKE-2 cell line was derived from a patient with Philadelphia chromosome positive Acute Lymphoblastic Leukemia (Ph-ALL). […] FIG. 24A: Joke-2 cells were grown in the presence of DMSO control or granaticin B (1 microM) for the indicated times and viability was measured after staining a cell sample in trypan blue (Sigma-Aldrich).
# SKMEL-28 = test: Nude mouse xenograft, melanoma; assay type: in vivo; settings: 2.5 mg/kg/day continuous, osmotic diffusion pumps; sections at day 28
# Protocol: FIG. 22A-22C. Granaticin B is Effective Against Multiple Solid Tumors: granaticin B is efficacious against mouse models of melanoma (FIG. 22A), non-small cell lung cancer (FIG. 22B), and ovarian cancer (FIG. 22C). For the ovarian cancer experiments, SCID-Beige mice were injected with 5 million OVCAR3 cells that had been transduced with a GFP-firefly luciferase expressing plasmid (Frattini, M. G. and Brentjens, R. J., unpublished data). These cells were then injected intraperitoneally into 4 cohorts of mice on Day 1. From days 7-14 the mice were injected daily with the indicated concentrations of granaticin B in the intraperitoneal space. […] Nude mice were treated with 2.5 mg/kg/day granaticin B in a continuous fashion using osmotic diffusion pumps. Sections of the treated xenografts are shown after euthanasia at day 28 and H&E staining.
# PhALL3.1 = assay type: in vivo
# From the text: FIGS. 20A-20C. Granaticin B Inhibits Ph-ALL3. 1 growth in vivo: Given the rapid intravenous clearance of granaticin A by the liver, granaticin B was used in a continuous infusion experiment with the PhALL3.1 animal model. Diffusion pumps containing granaticin B were surgically implanted in the flanks of 5 cohorts of mice on day +3 after injection of 5 million cells via the tail veins, and the drug (or control—C-DMSO) at the indicated concentration was allowed to diffuse for seven days before pump removal. The mice were imaged on day 12 (FIGS. 20A-20B) and tumor volume remaining was calculated (FIG. 20C).
Compound,Mcm2 phosphorylation in cells (Mcm2 phosphorylation),double strand DNA breaks (HeLa cells; HeLa cells),Mcm2 mobility (HeLa cells; SDS-PAGE and western blot),"S phase checkpoint activation (HeLa cells; western blot, Chk1 Ser345)",cell cycle profile by FACS (Ph-ALL3.1 cells; S phase fraction released into 1 μM),"3H-thymidine incorporation (Ph-ALL3.1 cells; S phase fraction, 2 hours pulses post-release)",activity relative to granaticin A ([1]; against all the samples tested),range of inhibition of cellular proliferation ([1]; all the samples tested),caspase-3 activation (JOKE-2 cells),effect on viability (trypan blue) (JOKE-2 cells),efficacy in mouse model of melanoma (SKMEL-28),"tumor reduction (PhALL3.1; highest dose, diffusion pump for seven days from day +3, imaged on day 12) [%]","organ toxicity at necropsy (PhALL3.1; mouse, in vivo)"
"CC1OC2CC(O)C1(O)c1c(O)c3c(c(O)c12)C(=O)C1=C(C3=O)[C@H](C)O[C@H]2CC(=O)O[C@@H]12 (stereo partly shown) [Granaticin A, granaticin A]",inhibition of Mcm2 phosphorylation,increased double strand DNA breaks,shifted,does not activate the S phase checkpoint,cell cycle arrest and apoptosis,markedly reduced incorporation,,,,,,,
"CC1OC2CC(O[C@H]3CC[C@H](O)[C@H](C)O3)C1(O)c1c(O)c3c(c(O)c12)C(=O)C1=C(C3=O)[C@H](C)O[C@H]2CC(=O)O[C@@H]12 (stereo partly shown) [Granaticin B, granaticin B]",,,,,,,approximately one log,low nanomolar range,only activated in cells exposed to granaticin B,very effective,efficacious,95,without obvious organ toxicity
